Data from patent US20240398822A1, “METHODS AND COMPOSITIONS FOR TREATING AND MANAGING ALZHEIMER'S DISEASE” (Pharmatrophix, Inc., priority 2021, published 2024).

Assays:
[1] = Phase I (1b) cerebrospinal fluid (CSF) levels; format: in vivo; conditions: human, day 10, 600 mg b.i.d. oral, 8 subjects, read-out: Cmax in cerebrospinal fluid (CSF), arithmetic mean
[2] = tested on: patients with mild to moderate Alzheimer's disease; test: Phase IIa cognitive testing (ADAS-cog, MMSE); format: in vivo, human
Description: Exploratory outcome evaluations involved the assessment of cognitive and clinical function (Table 1). […] Items from the Neurological Testing Battery (NTB), together with the ADAS-Cog 13, Spatial Navigation Test (AMUNET) were performed at Baseline, Week 12 and Week 26 (Visits 2, 4 and 5). While the MMSE was used primarily as a screening and baseline disease staging tool, its repeated administration at Week 26 provided an additional exploratory cognitive outcome measure. The Geriatric Depression Scale (GDS) was assessed at each Visit (Screening, Baseline, Week 4, 12, 26: Visits 1-5) and the Clinical Global Impression test (CGI) with Severity was assessed at Screening (Visit 1) and then the Improvement was subsequently assessed at Weeks 12 and 26 (Visits 4 and 5). For each test, whether categorical or numeric, all raw scores were considered interval in nature. The change from Screening (Week −8) or Baseline (Week 0) was therefore be derived for each patient. Actual values at each Visit and Changes from Screening/Baseline were summarized.
Alzheimer's Disease Assessment Scale—13 items (total score=85) is used as a parameter for exploratory outcome analysis. ADAS-cog is a psychometric instrument designed to evaluate the severity of cognitive and non-cognitive behavioral dysfunctions characteristic of people with AD. The cognitive portion assesses memory, language and praxis functions. Most items are rated on a scale of 0 to 5, where 0 indicates no impairment and 1 to 5 indicates very mild (1), mild (2), moderate (3), moderately severe (4) or severe impairment (5) respectively. Other items are rated on the presence or absence of a characteristic number of errors or severity of errors. The total scores from the ADAS-cog sub-scales range from 0 (no impairment) to 85 (errors in all sub-tests).
A positive (i.e. increasing) change of the score indicates cognitive worsening. In a meta-analysis model of 52 Alzheimer's Disease trials involving 19,972 mild-moderate disease subjects, a spontaneous decline in performance corresponding to an increase in ADAS-cog score of 5.5 points over one year, pointing to an expected average increase in score of 2.75 points over a 6-month period.
ADAS-Cog was assessed at Visits 2, 4 and 5, as well as at the early discontinuation Visit, if applicable.
While the MMSE was used primarily as a screening and baseline disease-staging tool, its administration at Week 26 provided an additional exploratory cognitive outcome measure.
Mini Mental Status Exam (MMSE). The MMSE can be used by a physician to evaluate a patient's condition over the course of administration. A baseline value prior to administration of a salt of Formula (II) can serve as a basis for baseline disease stage and also for the assessment of the effect of treatment on slowing loss of cognitive function. The expected decline in MMSE over a six month period generally ranges 1-3 points out of the total of 30 points possible in the MMSE test.

p-tau = test: Phase IIa CSF p-tau; format: in vivo, human; conditions: combined drug group
Source text: (§1) CSF samples were obtained at screening Visit and final Visit via lumbar puncture to determine levels of tau, p-tau, Aβ40, Aβ42 and AChE activity as an initial set of CSF biomarkers. Aliquots of CSF were made available for emerging CSF biomarker methods such as measurement of additional biomarkers including neurofilaments light chain, neurogranin, SNAP-25, synaptotagmin, YKL-40, TREM2, tau oligomers and for measurement of drug level in selected patients based on the time period between last dose of drug and CSF sampling (FIG. 25 and FIG. 58).
(§2) Baseline CSF samples are obtained prior to administration via lumbar puncture. These samples are used to determine levels of tau, p-tau, Aβ40, Aβ42, AChE, neurofilament light chain, SNAP-25, synaptotagmin-1, neurogranin, sTREM, and YKL-40. Aliquots of CSF are also made available for emerging CSF biomarker methods such as measurement of tau oligomers and for measurement of drug level in selected patients based on time period between last dose of the salt of Formula (II) and CSF sampling. […] Many of these biomarkers can also be measured in blood or plasma. The change in values over the time period from pre-treatment to post-treatment are of particular importance. […]

SNAP-25 = test: Phase IIa CSF pre-synaptic biomarker SNAP-25; format: in vivo, human
Source text: as §1
Baseline CSF samples are obtained prior to administration via lumbar puncture. These samples are used to determine levels of tau, p-tau, Aβ40, Aβ42, AChE, neurofilament light chain, SNAP-25, synaptotagmin-1, neurogranin, sTREM, and YKL-40. Aliquots of CSF are also made available for emerging CSF biomarker methods such as measurement of tau oligomers and for measurement of drug level in selected patients based on time period between last dose of the salt of Formula (II) and CSF sampling. […] Many of these biomarkers can also be measured in blood or plasma. The change in values over the time period from pre-treatment to post-treatment are of particular importance. […] Absolute levels at single time points of neurofilament light chain, SNAP-25, synaptotagmin-1, neurogranin, sTREM, and YKL-40 in CSF or blood or plasma are of less value given differences in assay techniques and wide variation in absolute levels within normal subjects and within and across AD subjects. In contrast, absolute levels of Aβ42 and 40 at baseline are useful biomarkers indicating the presence of amyloid pathology as low levels of Aβ42 and 40 at a given time point are consistent with amyloid pathology.

CSF biomarkers = test: Phase IIa CSF biomarkers, whole panel; format: in vivo, human
Source text: as §1, §2

[3] = tested on: amyloid based mice (L/S-APP) or tau based mice (PS19); conditions: published mouse studies, cited from earlier work
[4] = tested on: healthy elderly volunteers; test: Phase I (1b) safety and tolerability, 600 mg b.i.d. for 10 days
Description: Trial specific stopping rules were set to protect the trial subjects. Dosing would have been stopped for all subjects and the trial terminated if any of the stopping rules had occurred.
15 healthy adults were screened within three weeks prior to the baseline visit. Following 5 screening failures, 10 healthy adults, 5 aged 18-64 years and 5 aged 65-84 years were enrolled.
A phase 1b studied was conducted in 10 elderly normal subjects for the purpose of obtaining plasma and CSF coordinated drug levels and to further assess safety at a dose of 600 mg bid over a 10-day period. The study was double-blinded and placebo controlled with 8 subjects receiving drug.

[5] = 600 mg b.i.d. oral, 10 days, 8 subjects
[6] = non-serious AE, 600 mg b.i.d. oral, 10 days

## CC[C@H](C)[C@H](N)C(=O)NCCN1CCOCC1 [LM11A-31-BHS, Tris[(2S,3S)-2-amino-3-methyl-N-(2-morpholinoethyl)pentanamide] tetra(monohydrogensulfate), monosulfate]
[1]
  Cmax: 56 ng/mL
[2]; 200 mg bid and 400 mg bid versus placebo
  ADAS-cog-11, drug dose analysis: trend for decreased worsening of cognitive scores at both doses
[2]; 200 and 400 mg groups versus placebo
  ADAS-cog-13, drug dose analysis: nominal decrease in the increase in score
[2]; at 6 months, phase 2a study
  slowing trend in clinical outcome measures: 30-45%
[2]; combined drug group, 26 weeks, does not reach statistical significance
  worsening of ADAS-13 and -11 scores, drug versus placebo: trend in slowing the worsening
[2]; drug versus placebo
  directionality of slowing progression of worsening in ADAS-cog and MMSE: favorable effect of drug treatment
[2]; effects at neither dose reached statistical significance
  trends for slower progression of ADAS-cog and MMSE scores, dose comparison: greater at the 400 compared to 200 mg doses
p-tau
  CSF p-tau, drug versus placebo: trend for the drug to inhibit the trend to rise in p-tau
SNAP-25; 200 and 400 mg doses, post hoc Dunn's test does not reach significance
  CSF SNAP-25, drug dose analysis: significant main effect of drug dose
SNAP-25; annual percent change (APC), 6-month trial period
  drug effect in slowing or inhibiting the SNAP-25 increase, younger (<72 years) versus older (>=72 years): greater than that found in the older group
SNAP-25; combined drug group, 6 months, drug effect p=0.01
  CSF SNAP-25 change in the drug group: no increase was detected
CSF biomarkers; <72 years versus >=72 years
  drug effect across all CSF biomarkers by age group: the drug effect was in general greater in the younger versus older group
CSF biomarkers; CSF, pre-treatment to post-treatment
  effect on biomarkers indicating neuronal degeneration, gliosis and neuro-inflammation: ability to slow progression of increase of biomarkers indicating neuronal degeneration, gliosis and neuro-inflammation
[3]; GFAP and CD68 staining
  effect on pathological tau, neurites, synapses and spines, astrocytes and microglia: inhibits levels of pathological tau, loss of neurites, loss of synapses and spines, activation of astrocytes (GFAP staining is less) and activation of microglia (CD68 staining is less)
[3]
  effect on synaptic function (LTP signal, EPSP slope in hippocampal slices): corrects synaptic function
[4]; 600 mg BID up to ten days of treatment
  safety and tolerability in repeated dose schedule: support the safety and tolerability
[4]; 600 mg b.i.d. oral, 10 days
  number of deaths (all causes): 0
  number of deaths resulting from adverse events: 0
  serious adverse event Headache, occurrences causally related to treatment/all: 0/1
[4]; [5]
  drug related serious adverse events: 0 drug related adverse events
  mild drug related adverse events: 4 drug related adverse events
  moderate drug related adverse events: 0 drug related adverse events
  severe drug related adverse events: 0 drug related adverse events
[4]; [6]
  Abdominal pain, occurrences (all): 1
  Arthralgia, occurrences (all): 3
  Diarrhea, occurrences (all): 1
  Dry eye, occurrences (all): 0
  Flatulence, occurrences (all): 3
  Gamma-glutamyltransferase increased, occurrences (all): 1
  Headache, occurrences (all): 7
  Oropharyngeal pain, occurrences (all): 0
  Polyuria, occurrences (all): 1
  Presyncope, occurrences (all): 0
[4]; phase 1b, 600 mg bid, 10-day period, 8 subjects receiving drug
  alterations in physical examination, vital signs and ECG recordings: no clinically relevant alterations
[4]; phase 1b, 600 mg bid, 10 days, neither clinical relevance nor relationship with the study drug
  changes in haematological and biochemistry parameters: Minimal changes
